The values below come from patent EP1216043B1, “RETARD FORM CONTAINING ALPHA-LIPOIC ACID (DERIVATIVES)” (priority 1999, dated 2001).

The conditions of data set [1]: cited from earlier work; for Cmax / F (Bioverfügbarkeit) / t1/2 / tmax: peroral, arithmetic mean; for absolute Bioverfügbarkeit: clinical studies, range over the dosage forms of Tabelle 1.
Data set [2] is described as follows: Diffusion study: diffusion of α-Liponsäure out of a dialysis vessel with/without Chitosan and Essigsäure.
From the text: Bei der vorliegenden Diffusionsstudie wurde der Einfluss von Chitosan auf das Diffusionsverhalten von α-Liponsäure untersucht.
[3] abbreviates: 200 mg (±)-Liponsäure als 200 mg-Tablette.
The mark [4] stands for this setting: 200 mg (±)-Liponsäure als 4x50 mg-Tabletten.
The mark [5] stands for this setting: 200 mg (±)-Liponsäure als Lösung.

Like-named read-outs stand apart in the source and are kept apart here.

For `O=C(O)CCCCC1CCSS1` (racemic) [α-Liponsäure, 1,2-Dithiolan-3-pentansäure], the Plasma-Halbwertszeit entry in data set [1] (after peroral administration) was “weniger als zwei Stunden”. Also, the “share of the Konzentrationsgleichgewicht reached” value in data set [2] (in presence of Chitosan, without Essigsäure, ca. 5 hours) is listed as 63,8 % ± 4,3. For the same molecule, the “time until Konzentrationsgleichgewicht der α-Liponsäure innerhalb und außerhalb des Dialysegefäßes was reached” value in data set [2] (ohne Chitosan, printed as 'ca.') was at most 5 Stunden.
For `O=C(O)CCCC[C@H]1CCSS1` [S, S-(-)-α-Liponsäure], in data set [1] (setting [3]), the Cmax was 310 ng/mL, the “F (Bioverfügbarkeit)” value is listed as 19.1%, the t1/2 was 19.8 min and the tmax was 54 min. In data set [1] (setting [4]), the Cmax is 380 ng/mL, the “F (Bioverfügbarkeit)” value is reported as 20.9%, the t1/2 was 49.2 min and the tmax was 42 min. In data set [1] (setting [5]), the Cmax was 1320 ng/mL, the “F (Bioverfügbarkeit)” value is reported as 28.3%, the t1/2 was 9 min and the tmax was 12.6 min. Also, the “absolute Bioverfügbarkeit” value in data set [1] is listed as 19.1 - 28.3%.
Regarding `O=C(O)CCCC[C@@H]1CCSS1` [R, R-(+)-α-Liponsäure], in data set [1] (setting [3]), the highest concentration (Cmax) was 490 ng/mL, the “F (Bioverfügbarkeit)” value was 24.1%, the t1/2 is 19.8 min and the tmax is 54 min. For the same molecule, in data set [1] (setting [4]), the peak concentration (Cmax) is 600 ng/mL, the “F (Bioverfügbarkeit)” value was 25.9%, the t1/2 was 42.6 min and the tmax is 42 min. Also, in data set [1] (setting [5]), the Cmax was 2240 ng/mL, the “F (Bioverfügbarkeit)” value is recorded as 38.2%, the t1/2 is 14.4 min and the tmax is 12.6 min. Moreover, in data set [1], the “absolute Bioverfügbarkeit” value is 24.1 - 38.2%.
